The values that follow come from PubChem BioAssay AID1259407 (Chemical Carcinogenesis Research Information System (CCRIS), 2018).

This data set has as its system CCRIS mutagenicity, Ames/micronucleus/aberration tests. The data set can be described thus: CCRIS mutagenicity studies.
The mark [1] stands for this setting: Test System: AMES SALMONELLA TYPHIMURIUM, Strain/Indicator: TA98, Metabolic Activation: NONE, Method: STANDARD PLATE.
Setting [2] is: Test System: AMES SALMONELLA TYPHIMURIUM, Strain/Indicator: TA100, Metabolic Activation: NONE, Method: STANDARD PLATE.
Where [3] appears, read: Test System: AMES SALMONELLA TYPHIMURIUM, Strain/Indicator: TA1535, Metabolic Activation: NONE, Method: STANDARD PLATE.
Setting [4] is: Test System: AMES SALMONELLA TYPHIMURIUM, Strain/Indicator: TA1537, Metabolic Activation: NONE, Method: STANDARD PLATE.
The mark [5] stands for this setting: Test System: AMES SALMONELLA TYPHIMURIUM, Strain/Indicator: TA1538, Metabolic Activation: RAT, LIVER, S-9, AROCLOR 1254, Method: STANDARD PLATE.
Where [6] appears, read: Test System: AMES SALMONELLA TYPHIMURIUM, Strain/Indicator: TA98, Metabolic Activation: NONE, Method: PREINCUBATION
The mark [7] stands for this setting: Test System: AMES SALMONELLA TYPHIMURIUM, Strain/Indicator: TA100, Metabolic Activation: NONE, Method: PREINCUBATION
The mark [8] stands for this setting: Test System: AMES SALMONELLA TYPHIMURIUM, Strain/Indicator: TA100, Metabolic Activation: RAT, LIVER, S-9, Method: PREINCUBATION
Where [9] appears, read: Test System: AMES SALMONELLA TYPHIMURIUM, Strain/Indicator: TA1535, Metabolic Activation: NONE, Method: PREINCUBATION
Where [10] appears, read: Test System: AMES SALMONELLA TYPHIMURIUM, Strain/Indicator: TA100, Metabolic Activation: S-9, Method: STANDARD PLATE.

Each structure is given as a SMILES string. Calls of active or inactive are those of the source. The rule behind the calls is not given here.

For the compound `Nc1cc([N+](=O)[O-])c(N)cc1Cl`, the mutagenic call was “active; positive” under setting [1]; “active; positive” (Test System: AMES SALMONELLA TYPHIMURIUM, Strain/Indicator: TA98, Metabolic Activation: RAT, LIVER, S-9, AROCLOR 1254, Method: STANDARD PLATE); “inactive; negative” under setting [2]; “inactive; negative” (Test System: AMES SALMONELLA TYPHIMURIUM, Strain/Indicator: TA100, Metabolic Activation: RAT, LIVER, S-9, AROCLOR 1254, Method: STANDARD PLATE); “inactive; negative” under setting [3]; “inactive; negative” (Test System: AMES SALMONELLA TYPHIMURIUM, Strain/Indicator: TA1535, Metabolic Activation: RAT, LIVER, S-9, AROCLOR 1254, Method: STANDARD PLATE). Moreover, the mutagenic call was “inactive; negative” under setting [4]; “inactive; negative” (Test System: AMES SALMONELLA TYPHIMURIUM, Strain/Indicator: TA1537, Metabolic Activation: RAT, LIVER, S-9, AROCLOR 1254, Method: STANDARD PLATE); “active; positive” (Test System: AMES SALMONELLA TYPHIMURIUM, Strain/Indicator: TA1538, Metabolic Activation: NONE, Method: STANDARD PLATE); “active; positive” under setting [5].

For `O=[N+]([O-])c1cccc2c1-c1ccc3ccc4cccc5cc-2c1c3c45`, the mutagenic call (Test System: AMES SALMONELLA TYPHIMURIUM, Strain/Indicator: TA98, Metabolic Activation: RAT, LIVER, S-9, AROCLOR 1254, Method: PREINCUBATION) was “active; positive” and the mutagenic call (Test System: AMES SALMONELLA TYPHIMURIUM, Strain/Indicator: TA100, Metabolic Activation: RAT, LIVER, S-9, AROCLOR 1254, Method: PREINCUBATION) is “active; positive”.

As for `Cc1cc(-c2ccc(N=Nc3c(N)c(C)cc(S(=O)(=O)O)c3N)c(C)c2)ccc1N=Nc1ccc(O)c(C(=O)O)c1`, the mutagenic call under setting [5] is “active; positive”.

In the case of `Cc1ccc2ncccc2c1`, the mutagenic call is, setting by setting: (Test System: AMES SALMONELLA TYPHIMURIUM, Strain/Indicator: TA98, Metabolic Activation: HAMSTER, LIVER, S-9, AROCLOR 1254 (30%), Method: PREINCUBATION) “active; positive”; under setting [6], “inactive; negative”; (Test System: AMES SALMONELLA TYPHIMURIUM, Strain/Indicator: TA98, Metabolic Activation: RAT, LIVER, S-9, AROCLOR 1254 (5 OR 10%), Method: PREINCUBATION) “inactive; negative”; (Test System: AMES SALMONELLA TYPHIMURIUM, Strain/Indicator: TA100, Metabolic Activation: HAMSTER, LIVER, S-9, AROCLOR 1254 (30%), Method: PREINCUBATION) “active; positive”; under setting [7], “inactive; negative”; (Test System: AMES SALMONELLA TYPHIMURIUM, Strain/Indicator: TA100, Metabolic Activation: RAT, LIVER, S-9, AROCLOR 1254 (30%), Method: PREINCUBATION) “active; positive”. The mutagenic call is, setting by setting: (Test System: AMES SALMONELLA TYPHIMURIUM, Strain/Indicator: TA100, Metabolic Activation: RAT, LIVER, S-9, PHENOBARBITAL AND 5,6-BENZOFLAVONE, Method: PREINCUBATION) “active; positive”; (Test System: AMES SALMONELLA TYPHIMURIUM, Strain/Indicator: TA100, Metabolic Activation: RAT, LIVER, S-9, PHENOBARBITAL AND 5,6-NAPHTHOFLAVONE, Method: PREINCUBATION) “active; positive”; under setting [8], “active; positive”; (Test System: UDS RODENT HEPATOCYTES, Strain/Indicator: THY INCORP (NON-S-PHASE), Metabolic Activation: NONE, Method: AUTORADIOGRAPHY) “inactive; negative”.

Regarding `NC(=O)N(CCCC(=O)O)N=O`, the mutagenic call is, setting by setting: under setting [7], “active; positive”; under setting [9], “active; positive”; (Test System: E. COLI B, Strain/Indicator: H/R30R, Metabolic Activation: NONE) “active; positive”; (Test System: E. COLI B, Strain/Indicator: HS30R, Metabolic Activation: NONE) “active; positive”.

Regarding `Cc1c(Cl)cnc2ccccc12`, the mutagenic call under setting [8] is “inactive; negative”.

Take `CCOC(=O)OCC`: the mutagenic call is, setting by setting: (Test System: AMES SALMONELLA TYPHIMURIUM, Strain/Indicator: TA98, Metabolic Activation: HAMSTER, LIVER, S-9, AROCLOR 1254 (10%), Method: PREINCUBATION) “inactive; negative”; under setting [6], “inactive; negative”; (Test System: AMES SALMONELLA TYPHIMURIUM, Strain/Indicator: TA98, Metabolic Activation: RAT, LIVER, S-9, AROCLOR 1254 (10%), Method: PREINCUBATION) “inactive; negative”; (Test System: AMES SALMONELLA TYPHIMURIUM, Strain/Indicator: TA100, Metabolic Activation: HAMSTER, LIVER, S-9, AROCLOR 1254 (10%), Method: PREINCUBATION) “inactive; negative”; under setting [7], “inactive; negative”; (Test System: AMES SALMONELLA TYPHIMURIUM, Strain/Indicator: TA100, Metabolic Activation: RAT, LIVER, S-9, AROCLOR 1254 (10%), Method: PREINCUBATION) “inactive; negative”. In addition, the mutagenic call reads like this: (Test System: AMES SALMONELLA TYPHIMURIUM, Strain/Indicator: TA1535, Metabolic Activation: HAMSTER, LIVER, S-9, AROCLOR 1254 (10%), Method: PREINCUBATION) “inactive; negative”; under setting [9], “inactive; negative”; (Test System: AMES SALMONELLA TYPHIMURIUM, Strain/Indicator: TA1535, Metabolic Activation: RAT, LIVER, S-9, AROCLOR 1254 (10%), Method: PREINCUBATION) “inactive; negative”; (Test System: AMES SALMONELLA TYPHIMURIUM, Strain/Indicator: TA1537, Metabolic Activation: HAMSTER, LIVER, S-9, AROCLOR 1254 (10%), Method: PREINCUBATION) “inactive; negative”; (Test System: AMES SALMONELLA TYPHIMURIUM, Strain/Indicator: TA1537, Metabolic Activation: NONE, Method: PREINCUBATION) “inactive; negative”; (Test System: AMES SALMONELLA TYPHIMURIUM, Strain/Indicator: TA1537, Metabolic Activation: RAT, LIVER, S-9, AROCLOR 1254 (10%), Method: PREINCUBATION) “inactive; negative”.

Turning to `CN(C(=O)CCCCl)c1snc2ccccc12`, the mutagenic call was “inactive; negative” under setting [1]; “inactive; negative” (Test System: AMES SALMONELLA TYPHIMURIUM, Strain/Indicator: TA98, Metabolic Activation: S-9, Method: STANDARD PLATE); “inactive; negative” under setting [2]; “inactive; negative” under setting [10]; “inactive; negative” under setting [3]; “inactive; negative” (Test System: AMES SALMONELLA TYPHIMURIUM, Strain/Indicator: TA1535, Metabolic Activation: S-9, Method: STANDARD PLATE). Also, the mutagenic call was “inactive; negative” under setting [4] and “inactive; negative” (Test System: AMES SALMONELLA TYPHIMURIUM, Strain/Indicator: TA1537, Metabolic Activation: S-9, Method: STANDARD PLATE).

For the compound `O=C(CCCCl)N=c1sn(C(=O)CCCCl)c2ccc([N+](=O)[O-])cc12`, the mutagenic call under setting [10] was “active; positive”.
